Results as given in the NIST ThermoML archive (doi:10.1016/j.fluid.2015.04.017).

Experiment: xn = mol fraction of the nth substance listed
Conditions: 101 kPa, Liquid; for viscosity: Concentric cylinders viscometry; for mass density: Vibrating tube method

CCOC(=O)C(C)O (stereo not drawn) [DL-ethyl lactate] + Cc1ccccc1
Conditions | mass density [kg/m3] | viscosity [mPa·s]
288.15 K, x1 = 0.1001 | 887.622 | 0.6897
288.15 K, x1 = 0.2001 | 904.719 | 0.7894
288.15 K, x1 = 0.3 | 921.906 | 0.9136
288.15 K, x1 = 0.4 | 939.168 | 1.06
288.15 K, x1 = 0.4998 | 956.144 | 1.258
288.15 K, x1 = 0.6001 | 973.156 | 1.493
288.15 K, x1 = 0.7 | 990.077 | 1.795
288.15 K, x1 = 0.7999 | 1006.73 | 2.174
288.15 K, x1 = 0.9 | 1023.31 | 2.637
288.15 K, x1 = 1 | 1039.28 | 3.207
293.15 K, x1 = 0.1001 | 882.811 | 0.6502
293.15 K, x1 = 0.2001 | 899.769 | 0.7404
293.15 K, x1 = 0.3 | 916.845 | 0.8468
293.15 K, x1 = 0.4 | 934.015 | 0.9765
293.15 K, x1 = 0.4998 | 950.923 | 1.141
293.15 K, x1 = 0.6001 | 967.906 | 1.344
293.15 K, x1 = 0.7 | 984.738 | 1.597
293.15 K, x1 = 0.7999 | 1001.36 | 1.911
293.15 K, x1 = 0.9 | 1017.91 | 2.29
293.15 K, x1 = 1 | 1033.84 | 2.75
298.15 K, x1 = 0.1001 | 877.99 | 0.6148
298.15 K, x1 = 0.2001 | 894.808 | 0.6896
298.15 K, x1 = 0.3 | 911.77 | 0.7865
298.15 K, x1 = 0.4 | 928.847 | 0.9011
298.15 K, x1 = 0.4998 | 945.727 | 1.043
298.15 K, x1 = 0.6001 | 962.633 | 1.22
298.15 K, x1 = 0.7 | 979.381 | 1.434
298.15 K, x1 = 0.7999 | 995.963 | 1.695
298.15 K, x1 = 0.9 | 1012.47 | 2.01
298.15 K, x1 = 1 | 1028.39 | 2.39
303.15 K, x1 = 0.1001 | 873.16 | 0.5814
303.15 K, x1 = 0.2001 | 889.833 | 0.6488
303.15 K, x1 = 0.3 | 906.687 | 0.7345
303.15 K, x1 = 0.4 | 923.666 | 0.8343
303.15 K, x1 = 0.4998 | 940.433 | 0.9586
303.15 K, x1 = 0.6001 | 957.336 | 1.112
303.15 K, x1 = 0.7 | 974.002 | 1.295
303.15 K, x1 = 0.7999 | 990.547 | 1.517
303.15 K, x1 = 0.9 | 1007.14 | 1.782
303.15 K, x1 = 1 | 1022.92 | 2.097
308.15 K, x1 = 0.1001 | 868.317 | 0.5513
308.15 K, x1 = 0.2001 | 884.843 | 0.6122
308.15 K, x1 = 0.3 | 901.583 | 0.6876
308.15 K, x1 = 0.4 | 918.463 | 0.7756
308.15 K, x1 = 0.4998 | 935.187 | 0.8842
308.15 K, x1 = 0.6001 | 952.011 | 1.017
308.15 K, x1 = 0.7 | 968.604 | 1.176
308.15 K, x1 = 0.7999 | 985.109 | 1.367
308.15 K, x1 = 0.9 | 1001.53 | 1.592
308.15 K, x1 = 1 | 1017.42 | 1.858
313.15 K, x1 = 0.1001 | 863.457 | 0.5218
313.15 K, x1 = 0.2001 | 879.836 | 0.5761
313.15 K, x1 = 0.3 | 896.465 | 0.6439
313.15 K, x1 = 0.4 | 913.246 | 0.7225
313.15 K, x1 = 0.4998 | 929.878 | 0.8182
313.15 K, x1 = 0.6001 | 946.664 | 0.935
313.15 K, x1 = 0.7 | 963.183 | 1.073
313.15 K, x1 = 0.7999 | 979.648 | 1.239
313.15 K, x1 = 0.9 | 996.054 | 1.432
313.15 K, x1 = 1 | 1011.9 | 1.658
318.15 K, x1 = 0.1001 | 858.58 | 0.4943
318.15 K, x1 = 0.2001 | 874.813 | 0.5433
318.15 K, x1 = 0.3 | 891.323 | 0.6042
318.15 K, x1 = 0.4 | 908.008 | 0.6744
318.15 K, x1 = 0.4998 | 924.579 | 0.7599
318.15 K, x1 = 0.6001 | 941.286 | 0.8633
318.15 K, x1 = 0.7 | 957.74 | 0.985
318.15 K, x1 = 0.7999 | 974.163 | 1.13
318.15 K, x1 = 0.9 | 990.49 | 1.296
318.15 K, x1 = 1 | 1006.36 | 1.491
323.15 K, x1 = 0.1001 | 853.686 | 0.4712
323.15 K, x1 = 0.2001 | 869.771 | 0.5163
323.15 K, x1 = 0.3 | 886.165 | 0.5718
323.15 K, x1 = 0.4 | 902.749 | 0.6343
323.15 K, x1 = 0.4998 | 919.234 | 0.7115
323.15 K, x1 = 0.6001 | 935.886 | 0.8038
323.15 K, x1 = 0.7 | 952.282 | 0.912
323.15 K, x1 = 0.7999 | 968.653 | 1.038
323.15 K, x1 = 0.9 | 984.965 | 1.186
323.15 K, x1 = 1 | 1000.79 | 1.349
